PubChem BioAssay AID1259407 (Chemical Carcinogenesis Research Information System (CCRIS), 2018)
Active and inactive are the calls of the source. The rule behind the calls is not given here.

System: CCRIS mutagenicity, Ames/micronucleus/aberration tests
Test: CCRIS mutagenicity studies
[1] = Test System: AMES SALMONELLA TYPHIMURIUM, Strain/Indicator: TA98, Metabolic Activation: NONE, Method: PREINCUBATION
[2] = Test System: AMES SALMONELLA TYPHIMURIUM, Strain/Indicator: TA98, Metabolic Activation: NONE, Method: STANDARD PLATE
[3] = Test System: AMES SALMONELLA TYPHIMURIUM, Strain/Indicator: TA98, Metabolic Activation: RAT, LIVER, S-9, AROCLOR 1254, Method: STANDARD PLATE
[4] = Test System: AMES SALMONELLA TYPHIMURIUM, Strain/Indicator: TA100, Metabolic Activation: NONE, Method: PREINCUBATION
[5] = Test System: AMES SALMONELLA TYPHIMURIUM, Strain/Indicator: TA100, Metabolic Activation: NONE, Method: STANDARD PLATE

## Cl/C=C/Cl
End Point: IN VITRO CHROMOSOMAL ABERRATIONS, Test System: CHINESE HAMSTER LUNG (CHL), Metabolic Activation: NONE
  mutagenic call: inactive; negative
End Point: IN VITRO CHROMOSOMAL ABERRATIONS, Test System: CHINESE HAMSTER LUNG (CHL), Metabolic Activation: RAT, LIVER, S-9, KC-400
  mutagenic call: inactive; negative
Test System: AMES SALMONELLA TYPHIMURIUM, Strain/Indicator: TA97, Metabolic Activation: NONE, Method: STANDARD PLATE
  mutagenic call: inactive; negative
Test System: AMES SALMONELLA TYPHIMURIUM, Strain/Indicator: TA97, Metabolic Activation: RAT, LIVER, S-9, AROCLOR 1254, Method: STANDARD PLATE
  mutagenic call: active; positive
Test System: AMES SALMONELLA TYPHIMURIUM, Strain/Indicator: TA98, Metabolic Activation: HAMSTER LIVER S-9, AROCLOR 1254 (10%), Method: PREINCUBATION
  mutagenic call: inactive; negative
Test System: AMES SALMONELLA TYPHIMURIUM, Strain/Indicator: TA98, Metabolic Activation: HAMSTER, LIVER, S-9, AROCLOR 1254 (10%), Method: PREINCUBATION
  mutagenic call: inactive; negative
[1]
  mutagenic call: inactive; negative
[2]
  mutagenic call: inactive; negative
Test System: AMES SALMONELLA TYPHIMURIUM, Strain/Indicator: TA98, Metabolic Activation: RAT LIVER S-9, AROCLOR 1254 (10%), Method: PREINCUBATION
  mutagenic call: inactive; negative
Test System: AMES SALMONELLA TYPHIMURIUM, Strain/Indicator: TA98, Metabolic Activation: RAT, LIVER, S-9, AROCLOR 1254 (10%), Method: PREINCUBATION
  mutagenic call: inactive; negative
[3]
  mutagenic call: active; positive
Test System: AMES SALMONELLA TYPHIMURIUM, Strain/Indicator: TA100, Metabolic Activation: HAMSTER LIVER S-9, AROCLOR 1254 (10%), Method: PREINCUBATION
  mutagenic call: inactive; negative
Test System: AMES SALMONELLA TYPHIMURIUM, Strain/Indicator: TA100, Metabolic Activation: HAMSTER, LIVER, S-9, AROCLOR 1254 (10%), Method: PREINCUBATION
  mutagenic call: inactive; negative
[4]
  mutagenic call: inactive; negative
[5]
  mutagenic call: active; positive
Test System: AMES SALMONELLA TYPHIMURIUM, Strain/Indicator: TA100, Metabolic Activation: RAT LIVER S-9, AROCLOR 1254 (10%), Method: PREINCUBATION
  mutagenic call: inactive; negative
Test System: AMES SALMONELLA TYPHIMURIUM, Strain/Indicator: TA100, Metabolic Activation: RAT, LIVER, S-9, AROCLOR 1254 (10%), Method: PREINCUBATION
  mutagenic call: inactive; negative
Test System: AMES SALMONELLA TYPHIMURIUM, Strain/Indicator: TA100, Metabolic Activation: RAT, LIVER, S-9, AROCLOR 1254, Method: STANDARD PLATE
  mutagenic call: active; positive
Test System: AMES SALMONELLA TYPHIMURIUM, Strain/Indicator: TA104, Metabolic Activation: NONE, Method: STANDARD PLATE
  mutagenic call: inactive; negative
Test System: AMES SALMONELLA TYPHIMURIUM, Strain/Indicator: TA104, Metabolic Activation: RAT, LIVER, S-9, AROCLOR 1254, Method: STANDARD PLATE
  mutagenic call: inactive; negative
Test System: AMES SALMONELLA TYPHIMURIUM, Strain/Indicator: TA1535, Metabolic Activation: HAMSTER LIVER S-9, AROCLOR 1254 (10%), Method: PREINCUBATION
  mutagenic call: inactive; negative
Test System: AMES SALMONELLA TYPHIMURIUM, Strain/Indicator: TA1535, Metabolic Activation: HAMSTER, LIVER, S-9, AROCLOR 1254 (10%), Method: PREINCUBATION
  mutagenic call: inactive; negative
Test System: AMES SALMONELLA TYPHIMURIUM, Strain/Indicator: TA1535, Metabolic Activation: NONE, Method: PREINCUBATION
  mutagenic call: inactive; negative
Test System: AMES SALMONELLA TYPHIMURIUM, Strain/Indicator: TA1535, Metabolic Activation: RAT LIVER S-9, AROCLOR 1254 (10%), Method: PREINCUBATION
  mutagenic call: inactive; negative
Test System: AMES SALMONELLA TYPHIMURIUM, Strain/Indicator: TA1535, Metabolic Activation: RAT, LIVER, S-9, AROCLOR 1254 (10%), Method: PREINCUBATION
  mutagenic call: inactive; negative
Test System: AMES SALMONELLA TYPHIMURIUM, Strain/Indicator: TA1537, Metabolic Activation: HAMSTER LIVER S-9, AROCLOR 1254 (10%), Method: PREINCUBATION
  mutagenic call: inactive; negative
Test System: AMES SALMONELLA TYPHIMURIUM, Strain/Indicator: TA1537, Metabolic Activation: HAMSTER, LIVER, S-9, AROCLOR 1254 (10%), Method: PREINCUBATION
  mutagenic call: inactive; negative
Test System: AMES SALMONELLA TYPHIMURIUM, Strain/Indicator: TA1537, Metabolic Activation: NONE, Method: PREINCUBATION
  mutagenic call: inactive; negative
Test System: AMES SALMONELLA TYPHIMURIUM, Strain/Indicator: TA1537, Metabolic Activation: RAT LIVER S-9, AROCLOR 1254 (10%), Method: PREINCUBATION
  mutagenic call: inactive; negative
Test System: AMES SALMONELLA TYPHIMURIUM, Strain/Indicator: TA1537, Metabolic Activation: RAT, LIVER, S-9, AROCLOR 1254 (10%), Method: PREINCUBATION
  mutagenic call: inactive; negative

## O=[N+]([O-])c1cc(Cl)cc(Cl)c1O
[1]
  mutagenic call: inactive; negative
[2]
  mutagenic call: inactive; negative
[4]
  mutagenic call: inactive; negative
[5]
  mutagenic call: inactive; negative
Test System: CHINESE HAMSTER V-79, Strain/Indicator: V-79/6-THIOGUANINE, Metabolic Activation: NONE
  mutagenic call: inactive; negative

## C1=CC2OC2c2ccc3c4c5c(cccc5cc3c21)C=C4 (configuration not stated)
[2]
  mutagenic call: inactive; negative
Test System: AMES SALMONELLA TYPHIMURIUM, Strain/Indicator: TA98, Metabolic Activation: RAT, LIVER, S-9, AROCLOR 1254 (0.4, 0.8, 1.15 OR 1.5 MG/PLATE), Method: STANDARD PLATE
  mutagenic call: active; positive
[3]
  mutagenic call: active; positive

## O=S(=O)(O)c1ccc(N=Nc2c(O)ccc3ccccc23)cc1
Test System: AMES SALMONELLA TYPHIMURIUM, Strain/Indicator: TA98, Metabolic Activation: HAMSTER, LIVER, S-9, Method: PREINCUBATION (PRIVAL METHOD)
  mutagenic call: inactive; negative
[1]
  mutagenic call: inactive; negative
[2]
  mutagenic call: inactive; negative
Test System: AMES SALMONELLA TYPHIMURIUM, Strain/Indicator: TA98, Metabolic Activation: RAT LIVER S-9, AROCLOR 1254, Method: STANDARD PLATE
  mutagenic call: inactive; negative
Test System: AMES SALMONELLA TYPHIMURIUM, Strain/Indicator: TA98, Metabolic Activation: RAT, LIVER, S-9, PHENOBARBITAL, Method: PREINCUBATION
  mutagenic call: inactive; negative
[4]
  mutagenic call: inactive; negative
[5]
  mutagenic call: inactive; negative
Test System: AMES SALMONELLA TYPHIMURIUM, Strain/Indicator: TA100, Metabolic Activation: RAT LIVER S-9, AROCLOR 1254, Method: STANDARD PLATE
  mutagenic call: inactive; negative
Test System: AMES SALMONELLA TYPHIMURIUM, Strain/Indicator: TA100, Metabolic Activation: RAT, LIVER, S-9, PHENOBARBITAL, Method: PREINCUBATION
  mutagenic call: inactive; negative
